Measured values published in publication PMC3726336, “Product inhibition of cellulases studied with ^14C-labeled cellulose substrates” (Biotechnology for Biofuels, 2013).
Like-named read-outs stand apart in the source and are kept apart here.

What was measured:
TrCel7A = biological target: T1, TrCel7A (Trichoderma reesei, UniProt P62694); assay: Inhibition of synergistic hydrolysis of 14C-BC by TrCel7A (supplemented with EG TrCel5A); format: biochemical; details: IC50 for cellobiose, 14C-BC substrate, average over time points
T1 construct: TrCel7A was purified from the culture filtrate of Tr QM 9414 as described previously; made in house; host or cells: Trichoderma reesei QM 9414 culture filtrate (native producer)
Description: To study the cellobiose inhibition of GH7 CBHs, the synergistic hydrolysis of ^14C-BC in the presence of added cellobiose was followed (Figure 3, Additional file 1: Figures S1 and S2). Because the cellobiose inhibition of the EG TrCel5A is much weaker than that of GH7 CBHs, the inhibition of synergistic hydrolysis apparently reflects the inhibition of CBH. The strength of cellobiose inhibition was analyzed using plots of (DCB/DCB=0) versus [cellobiose], where DCB and DCB=0 represent the degree of conversion of ^14C-BC in the presence and absence of cellobiose, respectively (Figure 4, Additional file 1: Figure S3). […]
(§1) where [CB] is the concentration of cellobiose; [^14CBC] is the concentration of ^14C-BC used in the experiment; and C1, C2 and H are empirical constants. Equation 5 differs from Equation 1 by the presence of constant H. H was included to improve the fit and is a constant that accounts for the background radioactivity (the degree of conversion that is independent of CBH). The degree of conversion resulting from the activity of the EG was measured in a separate experiment (Additional file 1: Figure S4) and was subtracted from the degree of conversion resulting from the synergistic hydrolysis. […] Provided with the values of C1, C2 and H, the value of IC50 was calculated as follows: […]

CtCel7A = CtCel7A (Chaetomium thermophilum, UniProt A7WNU1); assay: Inhibition of synergistic hydrolysis of 14C-BC by CtCel7A (supplemented with EG TrCel5A); format: biochemical; details: 14C-BC substrate, read-out: IC50 for cellobiose
Description: To study the cellobiose inhibition of GH7 CBHs, the synergistic hydrolysis of ^14C-BC in the presence of added cellobiose was followed (Figure 3, Additional file 1: Figures S1 and S2). Because the cellobiose inhibition of the EG TrCel5A is much weaker than that of GH7 CBHs, the inhibition of synergistic hydrolysis apparently reflects the inhibition of CBH. The strength of cellobiose inhibition was analyzed using plots of (DCB/DCB=0) versus [cellobiose], where DCB and DCB=0 represent the degree of conversion of ^14C-BC in the presence and absence of cellobiose, respectively (Figure 4, Additional file 1: Figure S3). In the case of experiments without added cellobiose, the reactions were provided with N188BG to prevent the inhibition of the CBH by the cellobiose released during hydrolysis. Experiments with no added cellobiose and without BG were also conducted. […] Therefore, the concentration of the cellobiose released during hydrolysis was added to the concentration of externally supplied cellobiose in generating the plots in Figure 4 and Additional file 1: Figure S3. For the calculation of IC50 values, the data were first fitted to hyperbolae:
as §1, with “hydrolysis. Thus, in the case of complete inhibition, H should have a value of zero.” for “hydrolysis.”
Using the time course data measured in the presence and absence of cellobiose, the IC50 values were first found separately for each time point (Figure 4A). […]

TrCel7B = biological target: T2, TrCel7B (Trichoderma reesei, UniProt P07981); design: method as in PMID 15129433; details: 3H-reduced amorphous cellulose substrate, read-out: apparent Ki value; cited from earlier work
T2 construct: TrCel7B, TrCel5A, and TrCel12A were purified from the culture filtrate of Tr QM 9414; made in house; host or cells: Trichoderma reesei QM 9414 culture filtrate (native producer)

TrCel5A = biological target: T3, TrCel5A (Trichoderma reesei, UniProt P07982); design: method as in doi:10.1016/j.tca.2005.01.025; details: TrCel5A acting on cellohexaose; read-out: Ki value for cellobiose inhibition; cited from earlier work
T3 construct: TrCel7B, TrCel5A, and TrCel12A were purified from the culture filtrate of Tr QM 9414; made in house; host or cells: Trichoderma reesei QM 9414 culture filtrate (native producer)
T3 sequence (P07982 22-418): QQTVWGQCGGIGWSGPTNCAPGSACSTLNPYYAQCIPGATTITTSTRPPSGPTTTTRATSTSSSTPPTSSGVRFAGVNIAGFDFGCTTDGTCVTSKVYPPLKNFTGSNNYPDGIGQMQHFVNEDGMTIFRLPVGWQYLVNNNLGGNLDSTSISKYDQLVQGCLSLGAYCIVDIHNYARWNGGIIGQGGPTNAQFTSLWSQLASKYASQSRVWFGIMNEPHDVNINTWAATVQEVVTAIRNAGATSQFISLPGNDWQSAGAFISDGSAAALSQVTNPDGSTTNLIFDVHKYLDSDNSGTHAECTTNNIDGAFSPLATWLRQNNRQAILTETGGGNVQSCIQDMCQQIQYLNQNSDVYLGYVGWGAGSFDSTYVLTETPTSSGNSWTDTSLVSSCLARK

Sequence of CtCel7A (A7WNU1 entry or part of it): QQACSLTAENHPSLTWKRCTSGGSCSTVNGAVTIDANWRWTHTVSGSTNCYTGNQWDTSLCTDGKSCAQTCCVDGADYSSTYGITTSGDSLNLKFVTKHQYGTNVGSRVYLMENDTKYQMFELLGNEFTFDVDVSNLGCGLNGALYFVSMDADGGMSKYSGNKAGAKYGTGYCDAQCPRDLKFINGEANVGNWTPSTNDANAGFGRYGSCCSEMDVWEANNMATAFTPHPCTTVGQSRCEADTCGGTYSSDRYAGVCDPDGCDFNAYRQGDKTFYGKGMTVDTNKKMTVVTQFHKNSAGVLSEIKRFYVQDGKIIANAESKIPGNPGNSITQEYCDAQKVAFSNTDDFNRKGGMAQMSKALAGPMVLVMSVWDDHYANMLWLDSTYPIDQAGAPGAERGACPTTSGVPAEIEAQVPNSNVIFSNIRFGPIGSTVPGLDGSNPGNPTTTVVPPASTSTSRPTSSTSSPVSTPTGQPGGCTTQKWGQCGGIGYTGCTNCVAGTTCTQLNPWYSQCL
T1 sequence (P62694 18-513): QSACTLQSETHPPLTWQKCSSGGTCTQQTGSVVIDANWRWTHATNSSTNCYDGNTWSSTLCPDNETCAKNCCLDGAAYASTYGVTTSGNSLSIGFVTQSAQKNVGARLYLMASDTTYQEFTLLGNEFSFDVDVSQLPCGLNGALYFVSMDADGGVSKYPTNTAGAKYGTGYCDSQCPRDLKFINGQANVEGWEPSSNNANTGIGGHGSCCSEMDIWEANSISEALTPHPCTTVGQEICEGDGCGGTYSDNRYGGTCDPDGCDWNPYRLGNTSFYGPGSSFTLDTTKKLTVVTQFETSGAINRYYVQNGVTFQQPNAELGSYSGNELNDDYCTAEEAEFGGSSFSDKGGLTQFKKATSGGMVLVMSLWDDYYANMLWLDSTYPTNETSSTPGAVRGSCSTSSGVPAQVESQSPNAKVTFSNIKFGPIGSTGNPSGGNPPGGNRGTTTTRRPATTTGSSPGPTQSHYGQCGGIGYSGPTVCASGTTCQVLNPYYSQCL
T2 sequence (P07981 23-459): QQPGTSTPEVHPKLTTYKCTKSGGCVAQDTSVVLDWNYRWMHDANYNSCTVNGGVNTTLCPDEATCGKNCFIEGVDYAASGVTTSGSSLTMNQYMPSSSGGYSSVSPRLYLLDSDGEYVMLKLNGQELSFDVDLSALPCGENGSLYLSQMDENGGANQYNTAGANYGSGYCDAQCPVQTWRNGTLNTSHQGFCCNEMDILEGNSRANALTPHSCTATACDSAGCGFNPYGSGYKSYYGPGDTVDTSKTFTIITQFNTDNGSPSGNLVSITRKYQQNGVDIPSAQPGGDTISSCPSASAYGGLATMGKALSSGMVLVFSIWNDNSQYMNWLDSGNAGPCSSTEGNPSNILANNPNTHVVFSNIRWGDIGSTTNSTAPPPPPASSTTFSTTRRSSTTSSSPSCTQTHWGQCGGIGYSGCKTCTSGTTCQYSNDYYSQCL

## O=C[C@H](O)[C@@H](O)[C@H](O[C@@H]1O[C@H](CO)[C@@H](O)[C@H](O)[C@H]1O)[C@H](O)CO [cellobiose, Cellobiose]
TrCel7A; 35°C, IC50 increased with hydrolysis time
  IC50: 680 ± 240 µM
TrCel7A; 50°C
  IC50: 2610 ± 100 µM
CtCel7A; 25°C
  IC50: 410 ± 60 µM
CtCel7A; 35°C
  IC50: 1080 ± 220 µM
CtCel7A; 50°C, IC50 increased with hydrolysis time
  IC50: 2480 ± 910 µM
TrCel7B
  Ki: 11000 ± 3000 µM
TrCel5A
  Ki: 424 µM
